Test results reported in patent US5541186A, “Sulfonylaminopyrimidines” (Hoffmann-La Roche Inc., priority 1993, dated 1996).

Key:
human ETA receptors = biological target: T1, human ETA receptors (Homo sapiens, UniProt P25101); assay: Inhibition of endothelin binding to recombinant ETA receptors; conditions: 125I-endothelin 20 pM; 20° C. for 2 hours or 4° C. for 24 hours; baculovirus-insect cell membranes; read-out: IC50 (concentration required to inhibit 50% of the specific binding of 125I-endothelin)
T1 construct: made in house
T1 sequence (P25101 21-427): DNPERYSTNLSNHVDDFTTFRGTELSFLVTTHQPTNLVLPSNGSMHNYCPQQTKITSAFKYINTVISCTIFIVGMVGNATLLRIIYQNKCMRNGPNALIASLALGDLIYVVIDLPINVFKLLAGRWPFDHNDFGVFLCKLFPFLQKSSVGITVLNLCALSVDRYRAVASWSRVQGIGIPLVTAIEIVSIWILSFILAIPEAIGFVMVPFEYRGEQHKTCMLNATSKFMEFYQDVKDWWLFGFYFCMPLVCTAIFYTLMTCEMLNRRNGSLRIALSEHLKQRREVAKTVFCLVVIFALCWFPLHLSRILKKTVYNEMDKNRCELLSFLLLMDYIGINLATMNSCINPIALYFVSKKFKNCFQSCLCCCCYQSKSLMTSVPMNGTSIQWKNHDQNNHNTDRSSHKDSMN
Procedure: I: Inhibition of endothelin binding to recombinant ETA receptors
A cDNA coding for human ETA receptors of human placenta was cloned (M. Adachi, Y.-Y. Yang, Y. Furuichi and C. Miyamoto, BBRC 180, 1265-1272) and expressed in the baculovirus-insect cell system. Baculovirus-infected insect cells from a 23 l fermenter are centrifuged off (3000×g, 15 minutes, 4° C.) 60 hours after the infection, re-suspended in Tris buffer (5 mM, pH 7.4, 1 mM MgCl2) and again centrifuged. After a further re-suspension and centrifugation the cells are suspended in 800 ml of the same buffer and […] at -120° C. The cells disintegrate when the suspension in this hypotonic buffer mixture is thawed. After a repeated freeze-drying/thawing cycle the suspension is homogenized and centrifuged (25000 ×g, 15 minutes, 4° C.). After suspension in Tris buffer (75 mM, pH 7.4, 25 mM MgCl2, 250 mM saccharose) 1 ml aliquots (protein content about 3.5 mg/ml) are stored at -85° C.
For the binding assay, the […] membrane preparations are thawed and, after centrifugation at 20° C. and 25000 g for 10 minutes, re-suspended in assay buffer (50 mM Tris buffer, pH 7.4, containing 25 mM MnCl2, 1 mM EDTA and 0.5% bovine serum albumin). […] of this membrane suspension containing […] of protein are incubated with […] of ^125 I-endothelin (specific activity 2200 Ci/mMol) in assay buffer (25000 cpm, final concentration 20 pM) and […] of assay buffer containing varying concentrations of test compound. The incubation is carried out at 20° C. for 2 hours or at 4° C. for 24 hours. The separation of free and membrane-bound radio-ligands is carried out by filtration over a glass fiber filter.
The inhibitory activity of compounds of formula I determined in this test procedure is given in Table 1 as the IC50, i.e. as the concentration […] which is required to inhibit 50% of the specific binding of ^125 I-endothelin.

[1] = system: "stroke-prone", spontaneously hypertensive rats; assay: In vivo blood pressure in pathophysiologically relevant rat model (telemetry); conditions: 30 mg/kg in gum arabic, by probe
Procedure: A telemetric system (PA-C40 implant) was implanted into "stroke-prone", spontaneously hypertensive rats under anaesthesia in order that the arterial blood pressure and the heart rate could be measured continuously. The animals were left to recover for 2 weeks after the operation.
The corresponding test compound (30 mg/kg in gum arabic) was finally administered using a probe and the blood pressure was registered continuously. It became evident that compounds of formula I caused a fall in blood pressure, the administration of gum arabic alone (placebo control) having no significant effect on the blood pressure.

[2] = system: endothelin-induced contractions in isolated rat aorta rings; assay: Inhibition of endothelin-induced contractions in isolated rat aorta rings; type: cell-based, rat (adult Wistar-Kyoto); conditions: endothelin-1, no antagonist; half-maximum contraction; read-out: EC50 of endothelin in the absence of test compounds
Procedure: II. Inhibition of endothelin-induced contractions in isolated rat aorta rings
Rings with a length of 5 mm were cut out from the thorax aorta of adult Wistar-Kyoto rats. The endothelium was removed by lightly rubbing the internal surface. Each ring was immersed at 37° C. in 10 ml of Krebs-Henseleit solution in an isolated bath while gassing with 95% O2 and 5% CO2. The isometric stretching of the tings was measured. The rings were stretched to a pre-tension of 3 g. After incubation for 10 minutes with the test compound or vehicle cumulative dosages of endothelin-1 were added. The activity of the test compound was ascertained by the observed shift to the right of the dosage-activity curve of endothelin-1 in the presence of different concentrations of antagonist. This shift to the right (or "dose ratio", DR) corresponds to the quotient from the EC50 values of endothelin-1 in the presence and in the absence of antagonist, with the EC50 value denoting the endothelin concentration required for a half-maximum contraction.
The corresponding PA2 value, which is a measure of the activity of the test compound, was calculated using a computer programme according to the following equation from the "dose ratio" DR for each individual dosage-activity curve.
pA2 =log(DR-1)-log(antagonist-concentration)
The EC50 of endothelin in the absence of test compounds is 0.3 nM.

## COCCc1nc(NS(=O)(=O)c2ccc3c(c2)OCO3)c(Oc2cc(OC)ccc2Cl)c(OCCOC(=O)Nc2ccccn2)n1 [Example 10, pyridine-2-ylcarbamic acid 2-[6-(1,3-benzodioxol-5-ylsulfonylamino)-5-(2-chloro-5-methoxy-phenoxy)-2-(2-methoxyethyl)-pyrimidin-4-yloxy]-ethyl ester]
Human ETA receptors
  IC50: 1 nM

## COc1ccccc1Oc1c(NS(=O)(=O)c2ccc(C(C)(C)C)cc2)nc(-c2ncccn2)nc1OCCOC(=O)Nc1ccccn1 [Example 70, pyridin-2-ylcarbamic acid 2-[6-(4-tert-butyl-phenylsulfonylamino)-5-(2-methoxy-phenoxy)-2,2'-bipyrimidin-4-yloxy]-ethyl ester]
Human ETA receptors
  IC50: 6 nM
[1]
  % Decrease in the average arterial blood pressure (mm Hg): 30%

## COc1ccccc1Oc1c(NS(=O)(=O)c2ccc(C(C)(C)C)cc2)nc(N2CCOCC2)nc1OCCOC(=O)Nc1ccco1 [Example 75, furan-2-ylcarbamicacid 2-[6-(4-tert-butyl-phenylsulfonylamino)-5-(2-methoxy-phenoxy)-2-morpholin-4-yl-pyrimidin-4-yloxy]-ethyl ester]
Human ETA receptors
  IC50: 3 nM

## COc1ccc(S(=O)(=O)Nc2ncnc(OCCOC(=O)Nc3ccccn3)c2Oc2ccccc2OC)cc1CCC(=O)N1CCOCC1 [Example 120, pyridin-2-ylcarbamic acid 2-[6-[4-methoxy-3-(3-morpholin-4-yl-3-oxo-propyl)-phenylsulfonylamino]-5-(2-methoxy-phenoxy)-pyrimidin-4-yloxy]-ethyl ester]
Human ETA receptors
  IC50: 7 nM

## COc1ccc(Cl)c(Oc2c(NS(=O)(=O)c3ccc(C(C)(C)C)cc3)ncnc2OCCNC(=O)Nc2ccncc2)c1 [Example 134]
Human ETA receptors
  IC50: 44 nM

## COc1ccc(Cl)c(Oc2c(NS(=O)(=O)c3ccc4c(c3)OCO4)ncnc2OCCOC(=O)OCc2ccccn2)c1 [Example 140, carboxylic acid 2-[6-(1,3-benzodioxol-5-ylsulfonylamino)-5-(2-chloro-5-methoxy-phenoxy)-pyrimidin-4-yloxy]-ethyl ester pyridin-2-ylmethyl ester]
Human ETA receptors
  IC50: 9 nM

## endothelin: endothelin-1, agonist added in cumulative dosages to the rat aorta rings
[2]
  EC50: 0.3 nM
